Bridge positions count the residues as written; N and C are the ends. Ends that are not written are not given here.
Assays:
Design in all cases: species or system HIV
[1] = biological target: mAb 257D binding to SF162 gp120 protein; assay: Competition peptide ELISA, mAb 257D
[2] = system: mAb 240D binding to MN gp41 protein; assay: Competition peptide ELISA, mAb 240D; conditions: peptide 4-fold serial dilutions beginning at 20 ug/mL
[3] = system: mAb F240 binding to MN gp41 protein; assay: Competition peptide ELISA, mAb F240; conditions: peptide 4-fold serial dilutions beginning at 20 ug/mL
[4] = system: mAb 447-52D binding to SF162 gp120 protein; assay: Competition peptide ELISA, mAb 447-52D; conditions: for competition of peptide for binding of mAb 447-52D to gp120 protein: peptide 4-fold serial dilutions beginning at 20 ug/mL
[5] = competition ELISA, SF162 gp120 coated, unpaired t test, three replicate experiments
[6] = competition ELISA, SF162 gp120 coated

## EKSIHIGPGRAFY [R304E]
[1]; [5]
  IC50 of peptide compared with wild-type V3 peptide, mAb 257D: did not yield IC50 values that were significantly different from the wild-type peptide

## LLGIWGCSGKLICTTNVP (disulfide 7-13 (inferred)) [wild-type gp41 peptide]
[2]
  competition of peptide for binding of mAb 240D to gp41 protein: competed for binding
[3]
  competition of peptide for binding of mAb F240 to gp41 protein: competed for binding

## LLGIWGDSGKLICTTNVP [C598D]
[2]
  competition of peptide for binding of mAb 240D to gp41 protein: no longer competes for binding
[3]
  competition of peptide for binding of mAb F240 to gp41 protein: no longer competes for binding

## RKSIHIGPGRAFY [wild-type V3 peptide]
[4]
  competition of peptide for binding of mAb 447-52D to gp120 protein: competed for binding
[1]; peptide 4-fold serial dilutions beginning at 20 ug/mL
  competition of peptide for binding of mAb 257D to gp120 protein: competed for binding

## RKSIHIGPGRATY [F317T]
[4]
  competition of peptide for binding of mAb 447-52D to gp120 protein: improved binding above wild-type levels

## RKSIHIGPGWAFY [R315W]
[4]; [6]
  fold increase in IC50 versus wild-type V3 peptide, mAb 447-52D: 72 fold
[1]; [6]
  fold increase in IC50 versus wild-type V3 peptide, mAb 257D: 5 fold

## RTSIHIGPGRAFY [K305T]
[4]; [5]
  IC50 of peptide compared with wild-type V3 peptide, mAb 447-52D: did not yield IC50 values that were significantly different from the wild-type peptide
